PMC12186257, “Serendipitous and Systematic Chemoproteomic Discovery of MBLAC2, HINT1, and NME1‑4 Inhibitors from Histone Deacetylase-Targeting Pharmacophores” (ACS Chemical Biology, 2025)

How the values were obtained:
[1] = target: T1, PDE1C (Homo sapiens, UniProt Q14123); assay: Kinobead competition assay; details: dose-dependent binding; read-out: affinity PDE1C
T1 construct: endogenous in cells
Excerpt: (§1) The binding of KV-24 and KV-30 to the nucleotide-binding pocket raises the question of whether these compounds also target other nucleotide-binding proteins, such as kinases. To evaluate potential off-target effects, we performed Kinobead competition assays. This chemoproteomic approach is conceptually very similar to the one used here in that broad spectrum kinase inhibitors are immobilized on beads. […] PDE1C is a cAMP/cGMP nucleotide-binding protein that features two divalent metal cation cofactors. The hydroxamic acid moiety of KV-24 might chelate these metal cofactors, supporting the hypothesis that KV-24 binds the active site of PDE1C. […] With the help of our chemoproteomic platform, future structure–activity relationship (SAR) libraries based on the KV-24 and KV-30 scaffolds may be explored to improve selectivity toward either HINT1, kinase targets, or PDE1C. […]
(§2) LC-MS/MS. The different sample types were measured with different LC-MS/MS settings. MBLAC2 2-dose competition assays were measured with the Lumos1 setup, MBLAC2 9-dose competition assays were measured with the Lumos2 setup, and kinobeads assays were measured with the Eclipse setup.
(§3) Peptides were analyzed via LC–MS/MS on a Dionex Ultimate3000 nano HPLC coupled to either one of two Orbitrap Fusion Lumos mass spectrometers, or to an Orbitrap Eclipse mass spectrometer, operated via the Thermo Scientific Xcalibur software. […]

[2] = target: T2, MERTK (Homo sapiens, UniProt Q12866); assay: Kinobead competition assay; assay type: binding; details: only kinase among >190
T2 construct: endogenous in cells
T2 sequence (Q12866 21-999): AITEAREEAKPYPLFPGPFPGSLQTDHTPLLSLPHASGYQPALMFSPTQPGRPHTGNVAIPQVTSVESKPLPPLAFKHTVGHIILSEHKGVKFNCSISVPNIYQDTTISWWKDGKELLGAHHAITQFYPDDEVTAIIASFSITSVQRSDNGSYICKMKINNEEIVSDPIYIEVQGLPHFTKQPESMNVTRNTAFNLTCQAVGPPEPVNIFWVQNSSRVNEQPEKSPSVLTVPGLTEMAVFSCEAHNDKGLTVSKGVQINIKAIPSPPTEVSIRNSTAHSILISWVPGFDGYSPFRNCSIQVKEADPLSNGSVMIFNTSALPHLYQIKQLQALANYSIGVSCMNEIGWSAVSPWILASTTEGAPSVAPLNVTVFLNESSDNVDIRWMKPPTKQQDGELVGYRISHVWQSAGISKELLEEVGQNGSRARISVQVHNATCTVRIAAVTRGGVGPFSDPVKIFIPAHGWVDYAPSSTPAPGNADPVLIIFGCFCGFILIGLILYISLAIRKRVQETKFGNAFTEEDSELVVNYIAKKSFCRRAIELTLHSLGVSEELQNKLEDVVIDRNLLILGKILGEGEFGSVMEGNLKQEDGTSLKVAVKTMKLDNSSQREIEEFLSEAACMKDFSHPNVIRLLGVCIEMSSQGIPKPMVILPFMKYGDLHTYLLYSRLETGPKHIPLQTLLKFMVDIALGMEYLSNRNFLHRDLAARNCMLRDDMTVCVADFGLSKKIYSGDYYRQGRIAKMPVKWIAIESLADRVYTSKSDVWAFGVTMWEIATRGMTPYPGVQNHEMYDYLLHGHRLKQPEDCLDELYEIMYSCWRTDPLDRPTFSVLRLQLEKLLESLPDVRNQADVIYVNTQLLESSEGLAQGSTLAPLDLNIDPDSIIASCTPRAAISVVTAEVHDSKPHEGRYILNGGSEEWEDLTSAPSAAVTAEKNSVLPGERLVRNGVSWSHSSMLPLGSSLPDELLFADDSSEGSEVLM
Excerpt: as §1, §2, §3

T1 sequence (Q14123 whole entry): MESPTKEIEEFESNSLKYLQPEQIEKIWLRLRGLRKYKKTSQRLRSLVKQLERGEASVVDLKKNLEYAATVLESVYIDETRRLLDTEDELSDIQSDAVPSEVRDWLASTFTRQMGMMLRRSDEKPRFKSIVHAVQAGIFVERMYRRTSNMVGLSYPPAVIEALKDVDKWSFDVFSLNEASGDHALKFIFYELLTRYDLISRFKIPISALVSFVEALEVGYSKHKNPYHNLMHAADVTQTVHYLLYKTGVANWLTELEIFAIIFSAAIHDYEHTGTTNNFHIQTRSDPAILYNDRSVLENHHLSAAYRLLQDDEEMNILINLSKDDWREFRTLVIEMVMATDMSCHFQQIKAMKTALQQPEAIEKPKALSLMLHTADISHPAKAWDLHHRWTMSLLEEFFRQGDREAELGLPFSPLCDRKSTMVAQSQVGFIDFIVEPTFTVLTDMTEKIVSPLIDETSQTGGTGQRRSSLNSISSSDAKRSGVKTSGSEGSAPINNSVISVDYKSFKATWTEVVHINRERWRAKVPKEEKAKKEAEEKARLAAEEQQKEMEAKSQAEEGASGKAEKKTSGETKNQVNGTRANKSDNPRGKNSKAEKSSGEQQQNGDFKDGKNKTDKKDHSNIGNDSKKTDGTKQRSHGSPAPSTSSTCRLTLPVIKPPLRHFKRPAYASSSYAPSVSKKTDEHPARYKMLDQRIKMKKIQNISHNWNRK

Row | Compound | Kd [1] [nM] | MERTK binding [2]
1 | O=C(NO)c1ccc(-c2nc3ccccc3n3cccc23)cc1 [KV-24] | ~2000 | 
2 | O=C(NO)c1ccc(-c2nc3ccccc3c3ccccc23)cc1 [KV-30] |  | potential binding
